Test results taken from article PMC7179302, “Lead Optimization of Dehydroemetine for Repositioned Use in Malaria” (Antimicrobial Agents and Chemotherapy, 2020).
Where a name gives a salt, the structure may show the parent alone.

How the values were obtained:
Format in all cases: cell-based
[1] = test system: Plasmodium falciparum rings and trophozoites/schizonts; test: Stage-specific profiling using synchronized cultures; settings: highest concentration tested, 24 h exposure, read 24 h after postexposure wash
Method: Parasite cultures with ≥80% trophozoites and ≥80% rings were obtained by synchronization with 5% sorbitol ([42]). The cultures were synchronized twice, at 0 h and 31 h, to obtain young rings which were up to 3 h old. To obtain early schizont stages, the cultures were synchronized twice, with the second synchronization being 6 to 8 h after the first. […] The plates were washed 4 times after the incubation in order to dilute the drug concentration by >1,000-fold. The plates were incubated for another 24 h at 37°C, following which SYBR green staining was used to read the plates as described above.

[2] = test system: female gametocytes in P. falciparum strain NF54; test: Dual gamete formation assay, female gametocytes (Pfs25 expression); settings: Plasmodium falciparum, 48 h incubation
Method: (§1) A bioassay was performed to assess the malaria transmission-blocking potential of compounds on P. falciparum strain NF54 by estimating their ability to prevent male mature gametocytes from progressing to male microgametes or/and to inhibit female gamete activation, as indicators of gametocyte functionality. The NF54 strain was selected for its increased ability to produce gametocytes under in vitro conditions ([45]). The activation of male gametocytes into mature microgametes is evaluated by the process of exflagellation (extrusion of rapidly waving flagellum-like microgametes from the infected erythrocyte). The activation of female gametocytes is evaluated based on the specific expression of the P. falciparum s25 (Pfs25) protein at the surface of the female activated gametes ([46]). […]
(§2) Asexual cultures of P. falciparum strain NF54 parasites were used to seed gametocyte cultures at 0.5% parasitemia, 4% hematocrit in a 50-ml total volume under 3% O2, 5% CO2, 92% N2 gas. […] Plates were analyzed to detect exflagellation centers. […] Then, plates were analyzed to detect female activated gametes. Activation of male gametes was detected based on light changes provoked by flagellar movements that caused movement of surrounding cells. A 10-frame video was taken and then analyzed to determine these changes in cell position based on changes in pixels. […]

[3] = test system: HepG2 cells; test: MTT assay for cell cytotoxicity against HepG2 cells; settings: for LD50 (50% lethal dose), MTT assay: HepG2 cells, 48 h, ± SD
Method: HepG2 cells (University of Salford stocks, purchased from American Type Culture Collection [ATCC], USA), were grown in medium consisting of RPMI 1640, 2 mM L-glutamine, HEPES, 10% fetal bovine serum, 1% nonessential amino acids, and 1% penicillin-streptomycin. Cells were calculated on a hemocytometer to make a new cell-medium solution to a concentration of 5,000 cells/100 μl, and 100 μl of this new cell solution was added into each well of the 96-well plate. After 24 h of incubation, 100-μl amounts of the drug prepared in the medium were added to the wells. This was repeated in triplicate, and the plate was incubated for a further 48 h ([56]). After the incubation period, 50 μl of MTT solution was added to each well and incubated for 3 h. The liquid in each well was aspirated carefully, 200 μl of DMSO was added to each well, and the results were read on the Ascent plate reader.

[4] = test system: male gametocytes in P. falciparum strain NF54; test: Dual gamete formation assay, male gametocytes (exflagellation); settings: Plasmodium falciparum, 48 h incubation
Method: as §1, §2

| SMILES | Parasitaemia (percentage) Rings ([1]; 8500 (nM per legend)) [%] | Parasitaemia (percentage) Trophozoites ([1]; 8500 (nM per legend)) [%] | IC50 [2] [µM] | Selectivity index, LD50 HepG2 cells/IC50 parasites [3] | LD50 (50% lethal dose), MTT assay [3] [nM] | IC50 [4] [µM] | Parasitaemia (percentage) Rings ([1]; 200 (μM per legend)) [%] | Parasitaemia (percentage) Trophozoites ([1]; 200 (μM per legend)) [%] |
| --- | --- | --- | --- | --- | --- | --- | --- | --- |
| CCC1=C(C[C@H]2NCCc3cc(OC)c(OC)cc32)C[C@H]2c3cc(OC)c(OC)cc3CCN2C1 [(−)-R,S-dehydroemetine, (S)-2-((R)-6,7-dimethoxy-1,2,3,4-tetrahydro-isoquinolin-1-ylmethyl)-3-ethyl-9,10-dimethoxy-1,6,7,11b-tetrahydro-4H-pyrido[2,1-a]isoquinoline * dihydrobromide] | 50.21 | 19.75 | 1.04 | 2.37 | 168.07 ± 8.65 | 0.43 |  |  |
| CCC1=C(C[C@@H]2NCCc3cc(OC)c(OC)cc32)C[C@H]2c3cc(OC)c(OC)cc3CCN2C1 [(−)-S,S-dehydroisoemetine, (S)-2-((S)-6,7-dimethoxy-1,2,3,4-tetrahydro-isoquinolin-1-ylmethyl)-3-ethyl-9,10-dimethoxy-1,6,7,11b-tetrahydro-4H-pyrido[2,1-a]isoquinoline * dihydrobromide] |  |  | > 10 | 0.69 | 1429 ± 180 | > 10 | 70.98 | 24.67 |
